From patent publication US8906897B2, “Antimicrobial agents based on hemin derivatives” (Obschestvo S Ogranichennoi Otvetstvennostiyu …, priority 2009, dated 2014)
In brackets after ≈: the same amount, converted by molar mass.

Tests used:
[1] = system: human leukocytes; experiment: Cytotoxic activity against human leukocytes; conditions: 3 h incubation
Protocol: Total leukocytes were isolated from human blood by unforced sedimentation using freshly collected venous blood from a healthy donor.
Blood (10 mL) added with 10 units/mL heparin was exposed for 2.5 h in the dark at a temperature of 15 to 18° C. A light-colored liquid supernatant (4 mL) was collected over the layer of sedimenting erythrocytes, washed three times with balanced Hanks's salt solution, and resuspended in the RPMI-1640 medium (added with 8% fetal bovine serum, 2 mM L-glutamine, and 10 mM HEPES; hereinafter, the complete medium).
The concentrations of leukocytes and erythrocytes in the suspension were determined by counts in Goryachev's chamber, after which the suspension was adjusted to a leukocyte concentration of (1.0±0.1)×10^6 cells/mL with the complete medium.
To determine the cytotoxicity of the tested compounds for human leukocytes, the cell suspension was transferred to wells of sterile 96-well plates, tested compounds were added with serial twofold dilutions (the range of tested concentrations was from 3.2 to 100 μM for GrD and gramicidin S; from 8 to 500 μM for compound XIII; and from 8 to 1000 μM for compounds V, VI, VII, VIII, IX, X, XI, XIV, XV, XIX, and Hem), and the mixture was carefully stirred. The experiment was performed in two replicas.
As controls served cells added with an equivalent amount of the solvent in which tested compounds were prepared, namely: water for compounds VII and X; an aqueous solution of DMSO for compounds V, VI, VIII, and IX; and DMSO for GrD, gramicidin S, Hem, XI, XIII, XIV, XV, and XIX. An additional control was an additive-free leukocyte suspension.
Cells were incubated with tested compounds for 3 h (37° C., 5% CO2, 100% humidity). Leukocyte death values were quantified using fluorescence microscopy. Staining with propidium iodide (it permeates only into dead cells nuclei) and Hoechst 33342 (it stains all nuclei) was used to recognize dead and living cells. Cells were incubated for 15 min in plates with propidium iodide and Hoechst 33342 (37° C., 5% CO2), and then the plates were placed under a microscope for analysis.
The dead cell fraction was derived from the fluorescence images of cells obtained in the blue (Hoechst 33342) and red (propidium iodide) spectral ranges using an Axio Observer (Zeiss, Germany) fluorescence microscope equipped with a 10× objective lens (Plan-Neofluar 10×/0.3). The following sets of fluorescence filters were used. For propidium iodide: a 530/585-nm bandpass excitation filter, a 600-nm cut-off dichroic minor, and a 615-nm longpass barrier filter for analysis. For Hoechst 33342: a 359/372-nm bandpass excitation filter, a 395-nm cut-off dichroic mirror, and a 397-nm longpass barrier filter for analysis.
A digital camera recorded three types of cell images: (a) an image in the transmitted white light; (b) a blue fluorescence image obtained with UV excitation, and (c) a red fluorescence image obtained with green light excitation. At least four fields of view were photographed per well in various regions of a well.

[2] = system: Candida albicans No. 927; experiment: Antifungal activity, culture growth with pH indicator; assay type: cell-based; set-up: key to Test culture growth at various dilutions of the agent: (−) No growth; the indicator is blue; (±) Weak growth; the indicator is yellow, but the precipitate of grown cells looks as a diffuse spot; (+) Strong growth; the indicator is yellow, and the cell precipitate looks as a compact spot
Protocol: The subjects of action were Cryptococcus neoformans No. 3465 museum strain cells and Candida albicans No. 927 museum strain cells grown for one day on a glucose-peptone-yeast medium at 32° C. The reference compounds were the following antimycotics: pimafucin, amphotericin, and fluconazole.
Experiments were carried out on round-bottomed 96-well plates (Lenmedpolimer) in two replicas. To the first column (0), added was 10 μL of the stock solution of a water-soluble agent with concentrations of 10^−2 to 10^−3 mol/L; to the second column, added was also the same 10 μL plus 10 μL of the solvent corresponding to the given compound, suspended, 10 μL was transferred to the next well, and so on to the 8th well of the row. Stock solutions of water-insoluble compounds of general formula (I) (compounds V, VIII, XII, XIII, XIV, and hemin) were prepared in DMSO and were diluted with DMSO and the medium. DMSO concentrations in the reaction mixture in a well were ≦5%.
Then, to every well added was 190 μL of a Cr. neoformans cell culture suspension in a synthetic nutritional medium (so that the final cell concentration was approximately 10^3 CFU/mL), this medium containing Bromocresol Blue as a pH-indicator (pH: 5.5; indicator color: blue). As pH reduced to 4.5, the indicator in the culture changed its color to yellow, thereby indicating fungal cell growth. The synthetic medium comprised the following components: salts, amino acids, microelements, vitamins, an antibiotic, and glucose (30 components altogether) [Yarrow, D., “Methods for the Isolation, Maintenance and Identification of Yeasts,” in: The Yeasts. A Taxonomic Study, Ed. by Kurtsman, C. P, and Fell, M., Elsevier, 1998, pp. 77-100]. After being inoculated with a Cr. neoformans cell suspension, the plate was incubated at 32° C. for 1 h with stirring, then transferred to a stationary thermostat and incubated for two and five days at 27° C. After being inoculated with a C. albicans cell suspension, the plates were incubated for 1 h at 32° C. with stirring, then transferred to a stationary thermostat and incubated for one and four days at 27° C.

[3] = Solubility of tested agents (water / DMSO); conditions: water or DMSO
[4] = system: Enterococcus faecalis No. 559; experiment: Specific activity against resistant bacterial strains; assay type: cell-based; conditions: Enterococcus faecalis, NO.559, read-out: MICs for Vancomycin
Protocol: (§1) The tested agents were water-soluble hemin derivatives (compounds VII and XVIII) or DMSO-soluble derivatives (compounds VIII, XV, and XIV). Vancomycin was the reference compound. Each compound was tested in three replicas.
(§2) Sterile single-use flat-bottomed 96-well plates, Petri dishes, pipettes, tips, and test tubes (Pan-Eco, Moscow) were used in the study.
(§3) The nutritional media used were as follows. A working Mueller Hinton broth was prepared from dry media (Mueller Hinton broth, Acumedia, Baltimore) and sterilized by autoclaving at 121° C. for 15 min.
(§4) Staphylococcus aureus was cultured on the Tripticase Soy Agar (BBL) commercially available dry medium. Enterococcus faecalis was cultured on the Columbia Agar Base (BBL) commercially available dry medium. These media were sterilized by autoclaving at 121° C. for 15 min.
(§5) Bacterial inoculum was fixed and equal to 5×10^5 CFU/mL.
(§6) For water-soluble compounds, wells from 2nd through 8th were added with the solvent (water) in an amount of 15 μL per well, then the 1st well was added with 30 μL of the stock solution of the tested compound in water with a concentration of 1×10^3M, and the concentration was adjusted to 0.007×10^3 M by serial twofold dilutions. A 10-μL portion was taken from every well, and 190 μL of the bacterial culture (10^5 CFU) was added per well.
(§7) For DMSO-soluble compounds, wells from 2nd through 8th were added with the solvent (DMSO) in an amount of 10 μL per well, then the 1st well was added with 20 μL of the stock solution of the tested compound in […] with a concentration of 5×10^3M, and the concentration was adjusted to 0.039×10^3 M by serial twofold dilutions. A 2-μL portion was taken from each well, and 198 μL of the bacterial culture (10^5 CFU) was added per well.
(§8) The control comprised wells free of tested compounds (culture growth control). In addition, purity control of nutritional media and solvents was used. Plates were incubated in a thermostat at 36° C. for 24 hours.
(§9) Culture growth was evaluated visually by comparison of how microorganisms grew in the presence of tested compounds and in the absence of them. MSC (the minimal suppressing concentration) was set equal to the last dilution of a tested agent which suppressed bacterial culture growth.

[5] = system: Staphylococcus aureus No. 100 KC; experiment: as above; assay type: cell-based; conditions: Staphylococcus aureus, NO.100KC, read-out: MICs for Vancomycin
Protocol: as §1, §2, §3, §4, §5, §6, §7, §8, §9

[6] = system: Staphylococcus aureus No. 25923 ATCC; experiment: as above; assay type: cell-based; conditions: Staphylococcus aureus, NO.25923ATCC, read-out: MICs for Vancomycin
Protocol: as §1, §2, §3, §4, §5, §6, §7, §8, §9

[7] = system: Bacillus subtilis BKM B-501; experiment: Antibacterial activity (MIC/MBC), serial dilutions in liquid MH medium; assay type: cell-based
Protocol: (§10) The antibacterial activity of compounds was determined against Bacillus subtilis BKM B-501, Staphylococcus aureus 209P, Enterococcus faecalis BKM B-871, and Micrococcus luteus BKM Ac-2230 strains (acquired from the All-Russia Collection of Microorganisms at the Institute for Biochemistry and Physiology of Microorganisms, Russian Academy of Sciences). The main parameters characterizing the antibacterial activity are the minimal inhibitory concentration (MIC) and minimal bactericidal concentration (MBC). […] MBC is the least concentration that causes the death of all cells.
(§11) MIC was quantified by inhibiting culture growth in a liquid medium with serial dilutions of compounds using a modified procedure [Amsterdam, D., “Susceptibility Testing of Antimicrobials in Liquid Media,” in Antibiotics in Laboratory Medicine, Ed. by Lorian, V., 4th ed., Baltimore: Williams and Wilkins, 1996, pp. 52-111].
(§12) Bacteria were cultured and tests were carried out on an MH liquid medium (Mueller-Hinton medium: a dry extract of beef broth, 4 g/L; starch, 1.5 g/L; casein hydrolyzate, 17.5 g/L; Sigma-Fluka Catalog No. 70192) at 37° C., 100% humidity, and under stirring. Cultures (4th through 7th receeding post-thawing) in the exponential growth phase were used for tests.
(§13) Therefore, a correction for absorption was applied in estimating the optical density of bacterial suspensions for each compound with account for its concentration in the well.
(§14) The protocol for experimental antibacterial activity determination for tested compounds was as follows. A cryovial with the test strain culture (Bacillus subtilis BKIVI B-501, Staphylococcus aureus 209P, Enterococcus faecalis BKM B-871, or Micrococcus luteus BKIVI Ac-2230) in a medium with 7% DMSO stored in liquid nitrogen, was rapidly defrosted, and 1.5 mL of the fresh MH medium was inoculated with 100 μL of the cell suspension. Cells were grown for one day at 37° C. and stirred on an orbital shaker at 150 rpm. The morphologic features of the strain and the absence of contamination with foreign bacteria were verified by: (a) inoculation on an agarized (15 g/L agar) MH medium and observation of the shape and color of the grown colonies and (b) examination of characteristic morphologic features under a microscope (Mikmed-2, LOMO, Russia) equipped with a 40× objective lens. Further bacteria were cultured in 1 mL of the liquid MH medium at 37° C. under stirring. The cells were reseeded every day. Cell cultures were used in tests starting with 3rd reseeding and ending with 6th one.
(§15) For testing, 5 μL of a bacterial suspension in the stationary growth phase was transferred to 1 mL of a sterile MH medium and incubated until the exponential growth phase was attained (3 to 5 h, 37° C., stirring at 150 rpm). To estimate the microorganisms concentration, the optical density (A) of the resulting bacterial culture was measured at a wavelength of 595 nm. The value of A=0.2 measured from a […] portion of the cell suspension in a 96-well plate, with a correction for the medium absorption applied, was set to correspond to 4×10^8 cells/mL for both strains used. Taking into account the cell concentration measurements, the suspension was diluted with the MH medium to a concentration of from 5×10^4 to 1×10^5 cells/mL and transferred to a sterile 96-well plate in an amount of 100 μL, per well. Then, the cells were added with tested compounds and twofold serial dilutions of these compounds in plate's wells were made.
(§16) The controls used were: 100 μL of an additive-free bacterial culture (four wells); a bacterial culture added with 1% DMSO or water in the same volume as in the wells with the maximal concentration of the tested compounds (four wells); and 100 μL of the sterile MH medium without bacteria and without tested compounds for control of occasional contamination in the plate (four wells).

[8] = system: Micrococcus luteus BKM Ac-2230; experiment: as above; assay type: cell-based
Protocol: as §10, §11, §12, §13, §14, §15, §16

Row | Molecule | Death of leukocytes in the presence of 1 mM of compound [1] [%] | Test culture growth at various dilutions of the agent ([2]; dilution 0: 1 × 10^−4 M) | Test culture growth at various dilutions of the agent ([2]; dilution : 2 of 1 × 10^−4 M) | Test culture growth at various dilutions of the agent ([2]; dilution : 4 of 1 × 10^−4 M) | Test culture growth at various dilutions of the agent ([2]; dilution : 8 of 1 × 10^−4 M) | Test culture growth at various dilutions of the agent ([2]; dilution : 16 of 1 × 10^−4 M) | Test culture growth at various dilutions of the agent ([2]; dilution : 32 of 1 × 10^−4 M) | Test culture growth at various dilutions of the agent ([2]; dilution : 64 of 1 × 10^−4 M) | solubility (in words) [3] | MIC [4] [µg/mL] | MIC [5] [µg/mL] | MIC [6] [µg/mL] | MBC [7] [µM] | MIC ([7]; 20 h, MH medium) [µM] | MBC [8] [µM] | MIC ([8]; 20 h, MH medium) [µM] | concentration at which a weak toxic effect on leukocytes appears [1] [µM]
1 | Protohemin IX 6(7)-Mono[Cyclo(Orn-Leu-D-Phe-Pro-Val)2])amide [Compound XIII] | 14 ± 2 | ± | ± | + | + | + | + | + | water-insoluble | – | – | – | – | – | – | – | –
2 | CN[C@H](CC(C)C)C(=O)N[C@H]1C(=O)N[C@@H](CC(N)=O)C(=O)N[C@H]2C(=O)N[C@H]3C(=O)N[C@H](C(=O)N[C@H](C(=O)O)c4cc(O)cc(O)c4-c4cc3ccc4O)[C@H](O)c3ccc(c(Cl)c3)Oc3cc2cc(c3O[C@@H]2O[C@H](CO)[C@@H](O)[C@H](O)[C@H]2O[C@H]2C[C@](C)(N)[C@H](O)[C@H](C)O2)Oc2ccc(cc2Cl)[C@H]1O [Vancomycin, reference compound] | – | – | – | – | – | – | – | – | – | 1 (≈ 0.69 µM) | 1 (≈ 0.69 µM) | 1 (≈ 0.69 µM) | – | – | – | – | –
3 | C=CC1=C(C)c2cc3[n-]c(cc4nc(cc5[n-]c(cc1n2)c(C)c5CCC(=O)NCC(=O)OC)C(CCC(=O)NCC(=O)OC)=C4C)c(C)c3C=C.[Cl-].[Fe+3] [Compound XV, 6,7-Bis(N^α-Glycyl Methyl Ester)-Protohemin IX] | 13 ± 1 | – | – | – | – | – | – | – | DMSO-soluble | – | – | – | 25 ± 7 | 12.5 ± 4 | 6.5 | 1.6 | ~1000
